Measurements: patent publication US7476522B2, “Method for producing γ-linolenic acids from a ciliate culture by adding suitable precursor molecules to said culture medium” (Nutrinova Nutrition Specialties & Food Ingredients GmbH, priority 2001, dated 2009)
Read-outs that look alike come from different tables or passages of the source.

Columns and labels:
[1] = test system: Tetrahymena thermophila B1868VII
Experimental: (§1) Fermentations were carried out in a 1 l fermenter (700 ml working volume), 5 l fermenter (3 l working volume) and a 13 l fermenter (10 l working volume). The fermenters were equipped as standard with a pH electrode, a pO2 electrode, an aeration ring, a stirrer shaft with disk vein agitator, feed line for acid/alkali, feed line for feeding, inoculation fittings and sampling.
(§2) Fermentation conditions were as specified in Table 2.
(§3) To determine the biomass dry matter, 5 ml of cell culture were centrifuged for 10 min at 3400 g and 4° C., the supernatant was decanted and the cell pellet was frozen at −80° C. The frozen biomass was lyophilized and the weight of the biomass dry matter was determined.
(§4) The cell density was determined using the CASY 1 Cell Counter+Analyser System, Model TTC, Schärfe System. For measurement, the cells were diluted (1:500) in a weak CASY electrolyte solution and transported through a capillary of 150 μm diameter. The cells in a range of 15-50 μm particle size were counted.
(§5) The nonpolar lipid constituents (neutral lipids) were extracted from the biomass dry matter with n-hexane. For one batch, approximately 500 mg of biomass dry matter were stirred in 5 ml of n-hexane for 1 h at 60° C., then centrifuged for 2 min at 2700 g and the supernatant was purified by filtering off suspended matter. For the filtration, a Pasteur Pipette filled with cotton wool was used, having a fill height of approximately 1 cm. The cell residue for the first extraction was extracted a further time with 5 ml of solvent, the biomass was centrifuged off and the supernatant filtered. The purified organic phases of the two extractions were combined, the solvent was completely evaporated on a rotary evaporator and the amount of extracted lipid was determined by weighing.
(§6) The fatty acid spectrum was determined by means of a gas chromatograph (HP GC 6890) equipped with a flame ionization detector (Hewlett-Packard Company, Wilmington, USA). The column used was an FFAP (Free Fatty Acid Phase) Permbond (Macherey & Nagel GmbH, Düren). The fatty acids were identified by comparison with the retention times of fatty acid methyl ester standards. On the basis of the known concentration of the standard, the concentration of fatty acids in the samples could be determined.
(§7) 30-70 mg of the lyophilized biomass dry matter (see determination of biomass) were weighed out and were admixed with 1 ml of 20% strength methanolic HCl and 1 ml of methanolic standard solution (1 mg/ml). To liberate the fatty acids and transesterify them into fatty acid methyl esters, the samples were stirred in a closed test tube for two hours at 60° C. in a water bath and cooled to room temperature. To neutralize the sample, 1 ml of aqueous saturated sodium hydrogen carbonate solution was then added and the sample was mixed carefully. The fatty acid methyl esters were extracted by adding n-hexane. The batch was then mixed vigorously and phase separation was achieved by centrifuging for 2 min at 4300 rpm. About ⅔ of the upper organic phase was taken off and 1 μl of the sample was injected onto the GC column and analyzed (see also Table 5).
(§8) The fermentations were carried out in a 1-l fermenter containing 700 ml of MM-Var medium.

Tetrahymena = conditions: supplying acetate; cited from earlier work
[2] = test system: Tetrahymena thermophila B1868VII; conditions: for lipid content versus standard fermentation: NaAc feed
Experimental: as §1, §2, §3, §4, §5, §6, §7, §8

Tetrahymena pyriformis = conditions: cited from earlier work
[3] = acetate added before inoculation and also during culture

In the case of `CC(=O)[O-].[Na+]` [NaAc, sodium acetate], the “cell growth (cell density and biomass dry matter)” value [1] is reported as “adversely affected cell growth”, the “formation of GLA product by volume” value [1] is reported as “decreased” and the “GLA content of the biomass dry matter” value ([1]; 0.5 and 1.0 g/l NaAc in basal medium) is reported as “not altered”. For the same molecule, the NL/BDM ([1]; MM-VAR containing 0.5 g/l of NaAc, 46 h) was 8 %(w/w), the NL/BDM ([1]; MM-VAR containing 0.5 g/l of NaAc, 70 h) was 17 %(w/w) and the NL/BDM ([1]; MM-VAR containing 1.0 g/l of NaAc, 46 h) was 11 %(w/w). The NL/BDM ([1]; MM-VAR containing 1.0 g/l of NaAc, 70 h) was 17 %(w/w), the “GLA content in the neutral lipid versus standard fermentation” value ([1]; NaAc added to MM-Var basal medium) was “only slight differences” and the NL content ([1]; NaAc added to MM-Var basal medium, after 70 h, standard […]%) was 17 % (w/w). For the same molecule, the “lipid content versus standard fermentation” value ([1]; NaAc in basal medium, culture time 46 h) was “no significant difference”, the GLA yield overall [1, 3] was “impairment” and the “fatty acid spectrum and GLA content of the biomass” value [1, 3] was “no marked change”. The growth [1, 3] was “poorer growth”, the “composition of the fatty acids” value (Tetrahymena) was “not changed” and the “cell growth (cell density and BDM)” value [2] was “adverse effect on the cell growth”. For the same molecule, the “formation of GLA product by volume” value [2] was “impaired”, the NL/BDM ([2]; Feed 0.02 g/l of NaAc, 46 h) was 8 %(w/w) and the NL/BDM ([2]; Feed 0.02 g/l of NaAc, 70 h) was 12 %(w/w). For the same molecule, the NL/BDM ([2]; Feed 0.4 g/l of NaAc, 46 h) was 9 %(w/w), the NL/BDM ([2]; Feed 0.4 g/l of NaAc, 70 h) was 13 %(w/w) and the “GLA content of the biomass dry matter” value ([2]; NaAc fed during culturing) was “unchanged”. The “lipid content versus standard fermentation” value ([2]; after 70 h) was “no significant increase”, the “lipid content versus standard fermentation” value ([2]; culture time 46 h) was “no difference” and the cell count (Tetrahymena pyriformis; 0.1% acetate added to basal medium which does not contain glucose, […]10^5 without) was 1.6×10^5 cells per ml. For the same molecule, the cell count (Tetrahymena pyriformis; acetate, basal medium which contains glucose, 1.85×10^5 without) was 1.9×10^5 cells per ml.
